Test results as given in US8003649B2 (AstraZeneca AB, priority 2007, dated 2011).

target: T1, Androgen Receptor (AR) (Homo sapiens, UniProt P10275, T878A); assay: LNCaP Androgen Receptor Down-regulation Cell Assay (immunofluorescence end point); format: cell-based; conditions: LNCaP prostate carcinoma cells, compound incubation 20-22 hours, 50% reduction of the AR signal; read-out: Androgen Receptor Down-regulation Assay (a) IC50/μM
T1 construct: cell based immuno-fluorescence assay using the LNCaP prostate epithelial cell line; endogenous in cells; host or cells: LNCaP clone FGC (ATCC CRL-1740)
T1 sequence (P10275 1-920 T878A): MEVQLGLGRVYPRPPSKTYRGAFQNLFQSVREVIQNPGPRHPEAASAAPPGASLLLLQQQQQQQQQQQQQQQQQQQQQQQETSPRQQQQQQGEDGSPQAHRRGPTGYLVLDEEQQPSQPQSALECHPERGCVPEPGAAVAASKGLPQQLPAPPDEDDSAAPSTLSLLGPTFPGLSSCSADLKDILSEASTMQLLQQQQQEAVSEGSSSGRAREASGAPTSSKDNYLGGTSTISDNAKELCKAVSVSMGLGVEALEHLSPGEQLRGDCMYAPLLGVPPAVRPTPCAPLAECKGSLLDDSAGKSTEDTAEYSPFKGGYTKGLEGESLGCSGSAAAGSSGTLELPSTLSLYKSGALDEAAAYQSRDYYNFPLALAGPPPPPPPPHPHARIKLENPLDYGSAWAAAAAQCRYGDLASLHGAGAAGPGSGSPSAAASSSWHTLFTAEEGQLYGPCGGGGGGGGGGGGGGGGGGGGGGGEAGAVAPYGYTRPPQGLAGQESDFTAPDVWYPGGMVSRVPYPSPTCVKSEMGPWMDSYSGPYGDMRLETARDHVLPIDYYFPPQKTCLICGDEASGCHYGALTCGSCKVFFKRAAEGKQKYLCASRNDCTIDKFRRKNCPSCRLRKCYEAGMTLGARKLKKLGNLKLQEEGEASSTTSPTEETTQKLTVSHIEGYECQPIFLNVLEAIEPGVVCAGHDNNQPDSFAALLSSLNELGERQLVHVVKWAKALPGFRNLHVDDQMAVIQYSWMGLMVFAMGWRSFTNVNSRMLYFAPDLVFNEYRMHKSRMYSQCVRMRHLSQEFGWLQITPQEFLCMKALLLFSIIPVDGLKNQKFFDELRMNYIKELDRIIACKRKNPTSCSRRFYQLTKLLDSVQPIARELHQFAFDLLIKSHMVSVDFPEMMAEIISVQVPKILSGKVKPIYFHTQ
Summary of the method: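 LNCaP cells in medium with 5% charcoal-stripped FBS were plated overnight, then treated with a compound dilution series for 20-22 h at 37° C. After fixation, permeabilisation and immunostaining, AR-associated green fluorescence was quantified by laser-scanning microplate cytometry; AR down-regulation expressed as IC50 from fitted dose-response curves.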

Going from `O=C(c1cccc(C2CCN(c3ccc4nnc(C(F)(F)F)n4n3)CC2)c1)N1CCOCC1` [Example 648] to `FC(F)(F)c1nnc2ccc(N3CCC(c4ccc(OCCN5CCOCC5)cc4)CC3)nn12` [Example 731], the DC50 falls from 2.1 µM to 1.1 µM (1.9-fold).

Going from `FC(F)(F)c1nnc2ccc(N3CCC(COc4ccccc4Cl)CC3)nn12` [Example 475] to `FC(F)(F)c1nnc2ccc(N3CCCN(Cc4ccccc4Cl)CC3)nn12` [Example 33, 6-[4-[(2-chlorophenyl)methyl]-1,4-diazepan-1-yl]-3-(trifluoromethyl)-[1,2,4]triazolo[4,3-b]pyridazine], the DC50 falls from > 15 µM to 0.68 µM.

`Fc1cnccc1C1=CCN(c2ccc3nnc(C(F)(F)F)n3n2)CC1` [Example 606] and `CCOC(=O)c1cncc(C2=CCN(c3ccc4nnc(C(F)(F)F)n4n3)CC2)c1` [Example 608] are the same in DC50: 2.7 µM for the first, 2.7 µM for the second.

First: FC(F)(F)c1ccc(CN2CCN(c3ccc4nnc(C(F)(F)F)n4c3)CC2)cc1 [Example 186, 3-(trifluoromethyl)-6-[4-[[4-(trifluoromethyl)phenyl]methyl]piperazin-1-yl]-[1,2,4]triazolo[4,3-a]pyridine]
Second: CC(C)(C)c1ccc(CN2CCN(c3ccc4nnc(C(F)(F)F)n4n3)CC2)cc1 [Example 122, 6-[4-[(4-tert-butylphenyl)methyl]piperazin-1-yl]-3-(trifluoromethyl)-[1,2,4]triazolo[4,3-b]pyridazine]
The DC50 of the first is 1.5-fold lower: 2.8 µM for the first, 4.3 µM for the second.

Compared with `COC(=O)c1ccc(CN2CCN(c3ccc4nnc(C(F)(F)F)n4n3)CC2)cc1` [Example 121, methyl 4-[[4-[3-(trifluoromethyl)-[1,2,4]triazolo[4,3-b]pyridazin-6-yl]piperazin-1-yl]methyl]benzoate], `FC(F)(F)c1nnc2ccc(N3CCCN(Cc4ccc(Cl)cc4)CC3)nn12` [Example 176, 6-[4-[(4-chlorophenyl)methyl]-1,4-diazepan-1-yl]-3-(trifluoromethyl)-[1,2,4]triazolo[4,3-b]pyridazine] is 5.6-fold lower in DC50: 4.8 µM for the first, 0.85 µM for the second.

First: CN1CCC(NC(=O)c2cccc(OC3CCN(c4ccc5nnc(C(F)(F)F)n5n4)CC3)c2)CC1 [Example 703]
Second: O=C(c1ccc(OC2CCN(c3ccc4nnc(C(F)(F)F)n4n3)CC2)cc1)N1CC[C@@H](O)C1 [Example 418]
The DC50 of the first is lower: 5.5 µM for the first, > 14 µM for the second.

Going from `FC(F)c1nnc2ccc(N3CCN(Cc4c[nH]c5ccccc45)CC3)nn12` [Example 265] to `Fc1cccc(CN2CCN(c3ccc4nnc(C(F)F)n4n3)CC2)c1Cl` [Example 822], the DC50 falls from 3.8 µM to 1.7 µM (2.2-fold).

First: CN(C)C(=O)c1ccc(N2CCN(c3ccc4nnc(C(F)(F)F)n4n3)CC2)cc1 [Example 746]
Second: CN(C)C(=O)c1ccc(C2CCN(c3ccc4nnc(C(F)(F)F)n4n3)CC2)cc1 [Example 634]
The DC50 of the first is 3-fold higher: 3.3 µM for the first, 1.1 µM for the second.

Going from `C[C@H]1CN(Cc2cccc(Br)n2)CCN1c1ccc2nnc(C(F)(F)F)n2n1` [Example 360] to `C[C@H]1CN(Cc2ccc(C(F)(F)F)nc2)CCN1c1ccc2nnc(C(F)(F)F)n2n1` [Example 361], the DC50 rises from 1 µM to 4.7 µM (4.7-fold).

`FC(F)(F)c1nnc2ccc(N3CCN(Cc4cccc(Oc5ccc(Cl)cc5)c4)CC3)nn12` [Example 119, 6-[4-[[3-(4-chlorophenoxy)phenyl]methyl]piperazin-1-yl]-3-(trifluoromethyl)-[1,2,4]triazolo[4,3-b]pyridazine] and `COc1ccc(Oc2cccc(CN3CCN(c4ccc5nnc(C(F)(F)F)n5n4)CC3)c2)cc1` [Example 120, 6-[4-[[3-(4-methoxyphenoxy)phenyl]methyl]piperazin-1-yl]-3-(trifluoromethyl)-[1,2,4]triazolo[4,3-b]pyridazine] are within 1.5-fold of each other in DC50: 2.2 µM for the first, 1.7 µM for the second.

Going from `Fc1ccc(OC2CCN(c3ccc4nnc(C(F)(F)F)n4n3)CC2)cc1` [Example 625] to `FC(F)(F)c1nnc2ccc(N3CCC(Oc4ncccc4Br)CC3)nn12` [Example 723], the DC50 falls from 1.4 µM to 0.9 µM (1.6-fold).

Going from `FC(F)(F)c1nnc2ccc(N3CC4CN(Cc5ccc(Cl)nc5)CC4C3)nn12` (stereo not drawn) [Example 791] to `Cc1ncccc1CN1CC2CN(c3ccc4nnc(C(F)(F)F)n4n3)CC2C1` (stereo not drawn) [Example 799], the DC50 rises from 0.96 µM to 1.6 µM (1.7-fold).

Going from `COc1cccc(OC2CCN(c3ccc4nnc(C(F)F)n4n3)CC2)c1` [Example 267] to `FC(F)c1ccc(CN2CCN(c3ccc4nnc(C(F)F)n4n3)CC2)cc1` [Example 826, 3-(difluoromethyl)-6-[4-[4-(difluoromethyl)benzyl]piperazin-1-yl][1,2,4]triazolo[4,3-b]pyridazine], the DC50 rises from 0.85 µM to 1.4 µM (1.6-fold).

`Fc1ccc(Oc2ccc(CN3CCN(c4ccc5nnc(C(F)(F)F)n5n4)CC3)cc2)cc1` [Example 126, 6-[4-[[4-(4-fluorophenoxy)phenyl]methyl]piperazin-1-yl]-3-(trifluoromethyl)-[1,2,4]triazolo[4,3-b]pyridazine] and `Fc1ccc(-c2cccc(CN3CCN(c4ccc5nnc(C(F)(F)F)n5n4)CC3)c2)cc1` [Example 125, 6-[4-[[3-(4-fluorophenyl)phenyl]methyl]piperazin-1-yl]-3-(trifluoromethyl)-[1,2,4]triazolo[4,3-b]pyridazine] are within 1.5-fold of each other in DC50: 2 µM for the first, 1.9 µM for the second.

`C[C@@H]1CN(Cc2cccnc2)[C@@H](C)CN1c1ccc2nnc(C(F)(F)F)n2n1` [Example 217, 6-[(2R,5S)-2,5-dimethyl-4-(pyridin-3-ylmethyl)piperazin-1-yl]-3-(trifluoromethyl)[1,2,4]triazolo[4,3-b]pyridazine] and `CC1CN(c2ccc3nnc(C(F)(F)F)n3n2)C(C)CN1Cc1ccc(F)c(C#N)c1` (stereo not drawn) [Example 222] are within 1.5-fold of each other in DC50: 3.7 µM for the first, 2.6 µM for the second.

Going from `O=C(c1ccc(N2CCN(c3ccc4nnc(C(F)(F)F)n4n3)CC2)cc1)N1CCCC1` [Example 748] to `O=C(c1ccc(N2CCN(c3ccc4nnc(C(F)(F)F)n4n3)CC2)cc1)N1CC[C@@H](O)C1` [Example 747], the DC50 rises from 5.6 µM to 23 µM (4.1-fold).

Going from `FC(F)C(F)(F)c1nnc2ccc(N3CCCN(Cc4ccccc4)CC3)nn12` [Example 2, 6-(4-benzyl-1,4-diazepan-1-yl)-3-(1,1,2,2-tetrafluoroethyl)-[1,2,4]triazolo[4,3-b]pyridazine] to `Fc1ccccc1CN1CCN(c2ccc3nnc(C(F)(F)F)n3n2)CC1` [Example 72, 6-[4-[(2-fluorophenyl)methyl]piperazin-1-yl]-3-(trifluoromethyl)-[1,2,4]triazolo[4,3-b]pyridazine], the DC50 falls from 8.3 µM to 1 µM (8.3-fold).

Compared with `N#Cc1cccc(-c2nc(C3CCN(c4ccc5nnc(C(F)(F)F)n5n4)CC3)no2)c1` [Example 303], `Fc1cncc(C2CCN(c3ccc4nnc(C(F)(F)F)n4n3)CC2)c1` [Example 612] is higher in DC50: 5.8 µM for the first, > 13 µM for the second.

`OC1(c2ccncc2)CCN(c2ccc3nnc(C(F)(F)F)n3n2)CC1` [Example 550] and `Cn1c(CN2CCN(c3ccc4nnc(C(F)(F)F)n4n3)CC2)nc2ccccc21` [Example 54, 6-[4-[(1-methylbenzimidazol-2-yl)methyl]piperazin-1-yl]-3-(trifluoromethyl)-[1,2,4]triazolo[4,3-b]pyridazine] are within 1.5-fold of each other in DC50: 7.2 µM for the first, 6.7 µM for the second.

Compared with `Fc1cc(CN2CCN(c3ccc4nnc(C(F)(F)F)n4n3)CC2)cc(C(F)(F)F)c1` [Example 760], `FC(F)(F)c1cccc(CN2CCN(c3ccc4nnc(C(F)(F)Cl)n4n3)CC2)c1` [Example 347] is lower in DC50: > 3.1 µM for the first, 0.97 µM for the second.

Going from `O=C(Nc1ccc(F)cc1)N1CC2CN(c3ccc4nnc(C(F)(F)F)n4n3)CC2C1` (stereo not drawn) [Example 213, N-(4-fluorophenyl)-2-[3-(trifluoromethyl)-[1,2,4]triazolo[3,4-f]pyridazin-6-yl]-1,3,3a,4,6,6a-hexahydropyrrolo[3,4-c]pyrrole-5-carboxamide] to `FC(F)(F)c1ncccc1CN1CC2CN(c3ccc4nnc(C(F)(F)F)n4n3)CC2C1` (stereo not drawn) [Example 805], the DC50 falls from 4.5 µM to 1 µM (4.5-fold).

First: O=C(CN1CCN(c2ccc3nnc(C(F)(F)F)n3n2)CC1)N1CCCCC1 [Example 24, 1-piperidin-1-yl-2-[4-[3-(trifluoromethyl)-[1,2,4]triazolo[4,3-b]pyridazin-6-yl]piperazin-1-yl]ethanone]
Second: CC(F)(F)c1nnc2ccc(N3CCN(Cc4cccc(C#N)c4)CC3)nn12 [Example 242]
The DC50 of the first is higher: > 26 µM for the first, 7.4 µM for the second.

Going from `CN(C)C(=O)c1ccc2[nH]cc(C3CCN(c4ccc5nnc(C(F)(F)F)n5n4)CC3)c2c1` [Example 499] to `COc1ccc(OC)c(S(=O)(=O)N2CCN(c3ccc4nnc(C(F)(F)F)n4n3)CC2)c1` [Example 399], the DC50 rises from 1.7 µM to 3.7 µM (2.2-fold).

Going from `Fc1ccc(CN2CCN(c3ccc4nnc(C(F)F)n4n3)CC2)c(F)c1F` [Example 823] to `N#Cc1ccc(CN2[C@@H]3CC[C@H]2CN(c2ccc4nnc(C(F)(F)F)n4n2)C3)cc1` [Example 841], the DC50 falls from 4.7 µM to 2.9 µM (1.6-fold).
